In patent publication US20260365670A1, “EGFR INHIBITORS AND USES THEREOF” (DIZAL (JIANGSU) PHARMACEUTICAL CO., LTD., priority 2022, published 2026):
pIC50: −log10 of the molar value. Where two headings read alike, the source gives them in different places.

Experiments:
EGFR wild type = molecular target: T1, EGFR wild type (Homo sapiens, UniProt P00533); assay: Inhibition of EGFR wild type biochemical enzymatic activity (HTRF); details: EGFR WT, 1 mM ATP, 1 h, room temperature, read-out: IC50 (nM) @WT
T1 construct: purchased Carna Bio
Procedure, shortened: (§1)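 In a buffer with 5 mM MgCl2, 1 mM MnCl2, 1 mM DTT and 0.01% CHAPS, enzyme turnover of 1 μM biotinylated TK substrate at 1 mM ATP is followed by HTRF after 1 h at room temperature. IC50 is obtained by a four-parameter fit.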

EGFR L858R = molecular target: T2, EGFR L858R (Homo sapiens, UniProt P00533, L858R); assay: Inhibition of EGFR L858R biochemical enzymatic activity (HTRF); details: 1 mM ATP, 1 h, room temperature, read-out: IC50 (nM) @L858R
T2 construct: purchased Carna Bio
Procedure, shortened: as §1

EGFR L858R/T790M = molecular target: T3, EGFR L858R/T790M (Homo sapiens, UniProt P00533, L858R/T790M); assay: Inhibition of EGFR L858R/T790M biochemical enzymatic activity (HTRF); details: EGFR L858R-T790M, 1 mM ATP, 1 h, room temperature, read-out: IC50 (nM) @L858R-T790M
T3 construct: purchased Carna Bio
Procedure, shortened: as §1

EGFR Exon19Del = molecular target: T4, EGFR Exon19Del (Homo sapiens, UniProt P00533, DEL746-750); assay: Inhibition of EGFR Exon19Del biochemical enzymatic activity (HTRF); details: EGFR Del19, 1 mM ATP, 1 h, room temperature, read-out: IC50 @Del19
T4 construct: purchased Carna Bio
Procedure, shortened: as §1

EGFR Exon19Del/T790M = molecular target: T5, EGFR Exon19Del/T790M (Homo sapiens, UniProt P00533, DEL746-750/T790M); assay: Inhibition of EGFR Exon19Del/T790M biochemical enzymatic activity (HTRF); details: EGFR Del19-T790M, 1 mM ATP, 1 h, room temperature, read-out: IC50 (nM) @Del19-T790M
T5 construct: purchased Carna Bio
Procedure, shortened: as §1

EGFR[T790M/C797S/L858R] = molecular target: T6, EGFR[T790M/C797S/L858R] (Homo sapiens, UniProt P00533, C797S/L858R/T790M); assay: Inhibition of EGFR[T790M/C797S/L858R] biochemical enzymatic activity (HTRF); details: EGFR T790M-C797S-L858R, 1 mM ATP, 1 h, room temperature, read-out: IC50 (nM) @T790M- C797S - L858R
T6 construct: purchased Carna Bio
Procedure, shortened: as §1

[1] = molecular target: T7, EGFR[T790M/C797S/d746-750] (Homo sapiens, UniProt P00533, C797S/DEL746-750/T790M); assay: Inhibition of EGFR[T790M/C797S/d746-750] biochemical enzymatic activity (HTRF); details: EGFR T790M-C797S-Del19, 1 mM ATP, 1 h, room temperature, read-out: IC50 (nM) @T790M - C797S - Del19
T7 construct: purchased Carna Bio
Procedure, shortened: as §1

EGFR (d746-750 C797S) = molecular target: T8, EGFR (d746-750 C797S) (Homo sapiens, UniProt P00533, C797S/DEL746-750); assay: Inhibition of EGFR (d746-750 C797S) biochemical enzymatic activity (HTRF); details: EGFR Del19-C797S, 1 mM ATP, 1 h, room temperature, read-out: IC50 (nM) @Del19-C797S
T8 construct: purchased signalchem
Procedure, shortened: as §1

EGFR (C797S L858R) = molecular target: T9, EGFR (C797S L858R) (Homo sapiens, UniProt P00533, C797S/L858R); assay: Inhibition of EGFR (C797S L858R) biochemical enzymatic activity (HTRF); details: EGFR L858-C797S, 1 mM ATP, 1 h, room temperature, read-out: IC50 (nM) @L858-C797S
T9 construct: purchased signalchem
Procedure, shortened: as §1

[2] = tested on: Ba/F3 cells expressing EGFR mutations; assay: Cell proliferation assay, Ba/F3 cells expressing EGFR mutations (CellTiter-Glo, 72 hours); assay type: cell-based; details: CellTiter-Glo
Procedure, shortened: (§2)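 GI50 is the concentration giving 50% proliferation inhibition. Growth for this was normalised to a baseline viability reading taken when compound was added, and to DMSO wells. PC-9 (500 cells/well) and mutant-EGFR Ba/F3 (5000 cells/well) are treated after overnight seeding in RPMI1640-based medium.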

PC-9 = assay: Cell proliferation assay, PC-9 cells (CellTiter-Glo, 72 hours); assay type: cell-based; details: PC9 cells, CellTiter-Glo, read-out: PC9 GI50
Procedure, shortened: as §2

A-431 = assay: Cell proliferation GI50, A-431 cells (Table 6); assay type: cell-based
[3] = Mus musculus, BaF3, 72 h, BaF3 cells, EGFR DEL19-C797S, read-out: DEL19-C797S/BaF3 GI50
[4] = Mus musculus, BaF3, 72 h, BaF3 cells, EGFR DEL19-T790-C797S, read-out: DEL19-T790-C797S/BaF3 GI50
[5] = Mus musculus, BaF3, 72 h, BaF3 cells, EGFR L858R, read-out: L858R/BaF3 GI50
[6] = Mus musculus, BaF3, 72 h, BaF3 cells, EGFR L858R-C797S, read-out: L858R-C797S/BaF3 GI50
[7] = Mus musculus, BaF3, 72 h, BaF3 cells, EGFR L858R-T790-C797S, read-out: L858R-T790-C797S/BaF3 GI50
[8] = Mus musculus, BaF3, 72 h, BaF3 cells, EGFR L858R-T790M, read-out: L858R-T790M/BaF3 GI50
[9] = Mus musculus, BaF3, 72 h, EGFR DEL19-T790M, read-out: DEL19-T790M GI50
[10] = Homo sapiens, A-431, A-431 cells
[11] = BaF3 cells, EGFR DEL19-C797S, read-out: DEL19-C797S/BaF3 GI50
[12] = BaF3 cells, EGFR DEL19-T790-C797S, read-out: DEL19-T790-C797S/BaF3 GI50
[13] = BaF3 cells, EGFR L858R, read-out: L858R/BaF3 GI50
[14] = BaF3 cells, EGFR L858R-C797S, read-out: L858R-C797S/BaF3 GI50
[15] = BaF3 cells, EGFR L858R-T790-C797S, read-out: L858R-T790-C797S/BaF3 GI50
[16] = BaF3 cells, EGFR L858R-T790M, read-out: L858R-T790M/BaF3 GI50
[17] = EGFR DEL19-T790M, read-out: DEL19-T790M GI50

T1 sequence (P00533 25-1210): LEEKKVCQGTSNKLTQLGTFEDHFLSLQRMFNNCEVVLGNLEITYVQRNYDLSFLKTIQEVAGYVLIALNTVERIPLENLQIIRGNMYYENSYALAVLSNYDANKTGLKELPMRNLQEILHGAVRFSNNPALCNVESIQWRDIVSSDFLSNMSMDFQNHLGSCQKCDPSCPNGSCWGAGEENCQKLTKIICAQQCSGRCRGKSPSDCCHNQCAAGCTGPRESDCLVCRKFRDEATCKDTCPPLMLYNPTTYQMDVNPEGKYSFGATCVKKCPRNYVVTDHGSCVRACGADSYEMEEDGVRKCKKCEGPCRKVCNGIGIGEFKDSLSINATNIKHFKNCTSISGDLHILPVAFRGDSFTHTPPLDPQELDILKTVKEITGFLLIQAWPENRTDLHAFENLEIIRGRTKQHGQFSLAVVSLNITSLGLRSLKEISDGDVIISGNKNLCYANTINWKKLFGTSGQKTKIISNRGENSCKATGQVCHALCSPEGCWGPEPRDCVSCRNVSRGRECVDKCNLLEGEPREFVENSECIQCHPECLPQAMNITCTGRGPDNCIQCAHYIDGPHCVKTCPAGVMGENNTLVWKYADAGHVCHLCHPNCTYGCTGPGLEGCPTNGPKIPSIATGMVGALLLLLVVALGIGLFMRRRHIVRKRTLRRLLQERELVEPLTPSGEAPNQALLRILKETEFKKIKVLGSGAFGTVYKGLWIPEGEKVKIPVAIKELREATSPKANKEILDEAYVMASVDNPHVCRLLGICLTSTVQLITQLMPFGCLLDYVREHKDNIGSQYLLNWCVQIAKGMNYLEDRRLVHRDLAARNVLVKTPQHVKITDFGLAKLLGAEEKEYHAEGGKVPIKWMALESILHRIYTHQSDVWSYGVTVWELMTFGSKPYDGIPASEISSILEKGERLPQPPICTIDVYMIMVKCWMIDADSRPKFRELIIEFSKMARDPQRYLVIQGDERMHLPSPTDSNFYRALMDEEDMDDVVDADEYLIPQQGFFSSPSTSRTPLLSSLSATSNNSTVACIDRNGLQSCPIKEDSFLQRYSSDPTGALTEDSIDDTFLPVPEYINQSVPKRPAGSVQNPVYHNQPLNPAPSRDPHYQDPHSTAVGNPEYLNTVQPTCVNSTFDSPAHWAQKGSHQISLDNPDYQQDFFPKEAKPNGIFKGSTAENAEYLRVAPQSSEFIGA
T2 sequence (P00533 25-1210 L858R): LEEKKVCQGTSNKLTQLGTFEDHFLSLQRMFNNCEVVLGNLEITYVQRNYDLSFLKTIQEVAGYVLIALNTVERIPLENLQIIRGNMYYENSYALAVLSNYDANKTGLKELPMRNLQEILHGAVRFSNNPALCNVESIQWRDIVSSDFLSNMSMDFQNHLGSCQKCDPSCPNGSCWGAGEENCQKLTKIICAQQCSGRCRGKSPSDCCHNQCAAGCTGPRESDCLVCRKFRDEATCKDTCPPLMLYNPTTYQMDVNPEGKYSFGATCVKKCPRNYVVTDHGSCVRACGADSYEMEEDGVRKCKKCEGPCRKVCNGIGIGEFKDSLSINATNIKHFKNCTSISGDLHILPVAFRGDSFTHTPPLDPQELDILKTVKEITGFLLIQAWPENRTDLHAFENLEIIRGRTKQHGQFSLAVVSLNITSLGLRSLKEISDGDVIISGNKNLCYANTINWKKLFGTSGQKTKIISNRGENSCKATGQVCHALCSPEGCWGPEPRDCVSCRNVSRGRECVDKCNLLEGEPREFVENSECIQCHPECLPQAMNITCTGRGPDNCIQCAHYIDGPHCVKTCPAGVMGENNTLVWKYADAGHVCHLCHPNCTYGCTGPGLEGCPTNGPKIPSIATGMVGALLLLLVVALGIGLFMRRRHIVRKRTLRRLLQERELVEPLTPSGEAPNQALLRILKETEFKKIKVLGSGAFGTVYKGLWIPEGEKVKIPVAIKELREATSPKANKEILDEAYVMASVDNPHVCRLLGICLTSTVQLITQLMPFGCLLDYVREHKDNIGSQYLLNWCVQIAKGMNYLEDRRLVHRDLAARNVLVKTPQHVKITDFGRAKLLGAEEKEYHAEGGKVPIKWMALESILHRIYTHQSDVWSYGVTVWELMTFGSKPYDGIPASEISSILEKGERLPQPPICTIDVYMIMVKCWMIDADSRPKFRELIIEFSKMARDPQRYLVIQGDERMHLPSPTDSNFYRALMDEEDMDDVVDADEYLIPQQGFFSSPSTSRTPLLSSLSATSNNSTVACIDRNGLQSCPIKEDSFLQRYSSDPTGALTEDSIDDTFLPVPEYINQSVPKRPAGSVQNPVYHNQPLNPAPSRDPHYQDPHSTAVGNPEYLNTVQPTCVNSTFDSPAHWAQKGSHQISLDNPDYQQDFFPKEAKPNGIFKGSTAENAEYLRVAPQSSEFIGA
T9 sequence (P00533 25-1210 C797S/L858R): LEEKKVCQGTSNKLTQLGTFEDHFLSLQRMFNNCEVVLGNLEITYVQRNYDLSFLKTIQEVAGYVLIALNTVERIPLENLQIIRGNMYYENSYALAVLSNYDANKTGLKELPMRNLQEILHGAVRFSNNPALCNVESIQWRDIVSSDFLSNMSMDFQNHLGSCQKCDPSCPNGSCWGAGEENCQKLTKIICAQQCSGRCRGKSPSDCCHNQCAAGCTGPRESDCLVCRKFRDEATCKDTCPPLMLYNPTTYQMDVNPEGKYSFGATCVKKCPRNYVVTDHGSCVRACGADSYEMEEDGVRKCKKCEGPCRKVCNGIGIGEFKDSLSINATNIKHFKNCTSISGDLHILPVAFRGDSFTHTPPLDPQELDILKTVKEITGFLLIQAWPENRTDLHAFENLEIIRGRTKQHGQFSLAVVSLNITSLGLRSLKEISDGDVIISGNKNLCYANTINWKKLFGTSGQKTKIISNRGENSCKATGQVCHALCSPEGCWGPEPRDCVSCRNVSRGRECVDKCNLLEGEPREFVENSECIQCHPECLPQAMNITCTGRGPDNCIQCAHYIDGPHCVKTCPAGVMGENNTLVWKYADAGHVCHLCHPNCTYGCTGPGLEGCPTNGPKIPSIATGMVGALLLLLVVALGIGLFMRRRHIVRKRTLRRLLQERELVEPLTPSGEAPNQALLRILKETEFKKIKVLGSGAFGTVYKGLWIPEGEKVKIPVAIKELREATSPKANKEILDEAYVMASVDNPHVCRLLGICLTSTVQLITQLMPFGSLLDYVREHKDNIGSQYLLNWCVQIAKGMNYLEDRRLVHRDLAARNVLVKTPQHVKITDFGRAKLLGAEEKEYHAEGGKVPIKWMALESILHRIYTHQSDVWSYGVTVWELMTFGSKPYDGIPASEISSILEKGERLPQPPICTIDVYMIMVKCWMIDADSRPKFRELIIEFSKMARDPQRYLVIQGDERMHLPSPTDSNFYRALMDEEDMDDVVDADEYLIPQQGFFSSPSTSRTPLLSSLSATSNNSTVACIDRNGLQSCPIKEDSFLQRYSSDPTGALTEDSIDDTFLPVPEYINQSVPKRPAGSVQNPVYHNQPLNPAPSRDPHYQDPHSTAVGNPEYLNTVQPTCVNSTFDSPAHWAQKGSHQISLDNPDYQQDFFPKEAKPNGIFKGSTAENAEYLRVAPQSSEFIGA
T7 sequence (P00533 with tags, fused parts or gaps DEL746-750/T790M/C797S limits assumed): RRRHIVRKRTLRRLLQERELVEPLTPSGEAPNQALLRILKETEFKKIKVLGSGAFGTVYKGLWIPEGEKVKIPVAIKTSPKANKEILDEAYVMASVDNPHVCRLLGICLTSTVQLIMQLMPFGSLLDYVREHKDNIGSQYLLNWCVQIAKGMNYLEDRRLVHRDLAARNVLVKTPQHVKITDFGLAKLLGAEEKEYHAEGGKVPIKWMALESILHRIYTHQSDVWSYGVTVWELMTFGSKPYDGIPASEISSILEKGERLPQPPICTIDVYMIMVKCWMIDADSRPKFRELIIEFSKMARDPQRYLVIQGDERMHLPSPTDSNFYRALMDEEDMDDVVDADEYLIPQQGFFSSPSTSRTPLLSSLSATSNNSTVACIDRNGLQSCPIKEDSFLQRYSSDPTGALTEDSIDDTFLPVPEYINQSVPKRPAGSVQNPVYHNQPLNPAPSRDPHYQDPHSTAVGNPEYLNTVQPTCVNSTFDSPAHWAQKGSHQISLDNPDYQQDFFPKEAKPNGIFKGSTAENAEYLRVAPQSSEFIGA
T8 sequence (P00533 with tags, fused parts or gaps DEL746-750/C797S limits assumed): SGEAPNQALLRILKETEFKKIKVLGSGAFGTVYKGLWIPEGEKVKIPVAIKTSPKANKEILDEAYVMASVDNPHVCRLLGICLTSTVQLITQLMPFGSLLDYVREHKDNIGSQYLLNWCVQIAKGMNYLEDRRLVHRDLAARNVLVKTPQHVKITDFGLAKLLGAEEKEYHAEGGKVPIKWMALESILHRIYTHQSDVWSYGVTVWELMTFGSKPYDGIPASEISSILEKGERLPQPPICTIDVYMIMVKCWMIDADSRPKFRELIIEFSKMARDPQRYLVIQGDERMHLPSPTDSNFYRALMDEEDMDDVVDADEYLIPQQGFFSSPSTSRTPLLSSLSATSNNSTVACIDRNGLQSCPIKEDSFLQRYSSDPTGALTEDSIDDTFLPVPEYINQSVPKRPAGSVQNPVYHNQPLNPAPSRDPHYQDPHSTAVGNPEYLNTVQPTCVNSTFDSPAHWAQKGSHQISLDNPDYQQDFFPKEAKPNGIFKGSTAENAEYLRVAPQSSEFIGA

Compound	IC50 (EGFR wild type)	IC50 (EGFR L858R)	IC50 (EGFR L858R/T790M)	pIC50 (EGFR Exon19Del)	IC50 (EGFR Exon19Del/T790M)	IC50 (EGFR[T790M/C797S/L858R])	IC50 [1]	IC50 (EGFR (d746-750 C797S))	IC50 (EGFR (C797S L858R))	GI50 [2, 3]	GI50 [2, 4]	GI50 (A-431; [10])	GI50 [2, 11]	GI50 [2, 12]	GI50 [2, 13]	GI50 [2, 14]	GI50 [2, 15]	GI50 [2, 16]	GI50 [2, 17]	GI50 (PC-9)	other results
Cn1ncc2c1OCCN1CC3CCC(C3)(C1)n1c(nc3ccccc31)NC(=O)c1cc-2c(=O)n(C)c1 (stereo not drawn) [Example A61B, 15,21-Dimethyl-23-oxa-2,9,11,15,20,21,26-heptaazaheptacyclo[24.4.1.1^{1,28}.1^{13,17}.0^{2,10}.0^{3,8}.0^{18,22}]tritriaconta-3,5,7,9,13,17(33),18(22),19-octaene-12,16-dione]	2420 nM	224 nM	8 nM	8.21	1.8 nM	17 nM	1.7 nM	2.5 nM	146 nM	1.7 nM	11 nM	1790 nM	–	–	–	–	–	–	–	–	GI50 [2, 5]: 21 nM; GI50 [2, 6]: 22 nM; GI50 [2, 7]: 16 nM; GI50 [2, 8]: 55 nM; GI50 [2, 9]: 9.9 nM; GI50 (PC-9; Homo sapiens, PC-9, 72 h): 29 nM
CN1CCC12CCN(c1ccc3nc4n(c3c1)C13CCC(CN(CCOc5c(cnn5C)-c5cc(cn(C)c5=O)C(=O)N4)C1)C3)CC2 (single isomer, unassigned) [Example A67A]	> 5000 nM	> 5000 nM	> 5000 nM	5.99	4070 nM	> 5000 nM	1640 nM	1080 nM	> 5000 nM	–	–	–	133 nM	374 nM	530 nM	382 nM	258 nM	1040 nM	463 nM	307 nM	GI50 (A-431; A-431 cells): 6350 nM
CC(C)N1CCN(c2ccc3nc4n(c3c2)C23CCC(CN(CCOc5c(cnn5C)-c5cc(cn(C)c5=O)C(=O)N4)C2)C3)CC1 (single isomer, unassigned) [Example A108B]	7.7 nM	1.9 nM	1.3 nM	9.00	1.7 nM	1.1 nM	1.4 nM	0.77 nM	1.5 nM	–	–	–	0.67 nM	1 nM	1 nM	1.1 nM	1.2 nM	3.9 nM	1.3 nM	4.6 nM	GI50 (A-431; A-431 cells): 320 nM
CN(C)CCCN(C)c1ccc2nc3n(c2c1)C12CCC(CN(CCOc4c(cnn4C)-c4cc(cn(C)c4=O)C(=O)N3)C1)C2 (single isomer, unassigned) [Example A89B]	134 nM	16 nM	7.4 nM	8.72	3.8 nM	5.4 nM	4 nM	2.2 nM	11 nM	–	–	–	0.57 nM	3.2 nM	2.2 nM	3.8 nM	4.1 nM	9.2 nM	2.6 nM	28 nM	GI50 (A-431; A-431 cells): 1700 nM
CN1CCC2(CN(c3ccc4nc5n(c4c3)C34CCC(CN(CCOc6c(cnn6C)-c6cc(cn(C)c6=O)C(=O)N5)C3)C4)C2)C(F)(F)C1 (single isomer, unassigned) [Example A91A]	> 5000 nM	3720 nM	> 5000 nM	6.13	> 5000 nM	> 5000 nM	> 5000 nM	1650 nM	> 5000 nM	–	–	1180 nM	74 nM	146 nM	324 nM	303 nM	366 nM	884 nM	231 nM	1300 nM	–
CN1CCC2(CCN(c3ccc4nc5n(c4c3)C34CCC(CN(CCOc6c(cnn6C)-c6cc(cn(C)c6=O)C(=O)N5)C3)C4)C2)C1 (single isomer, unassigned) [Example A81A]	> 5000 nM	1530 nM	> 5000 nM	6.39	> 5000 nM	> 5000 nM	> 5000 nM	389 nM	> 5000 nM	–	–	1320 nM	107 nM	258 nM	319 nM	170 nM	381 nM	350 nM	178 nM	247 nM	–

Now from value to compound, other results behind:

IC50 (EGFR wild type)	IC50 (EGFR L858R)	IC50 (EGFR L858R/T790M)	pIC50 (EGFR Exon19Del)	IC50 (EGFR Exon19Del/T790M)	IC50 (EGFR[T790M/C797S/L858R])	IC50 [1]	IC50 (EGFR (d746-750 C797S))	IC50 (EGFR (C797S L858R))	GI50 [2, 3]	GI50 [2, 4]	GI50 (A-431; [10])	GI50 [2, 11]	GI50 [2, 12]	GI50 [2, 13]	GI50 [2, 14]	GI50 [2, 15]	GI50 [2, 16]	GI50 [2, 17]	GI50 (PC-9)	Compound	other results
> 5000 nM	625 nM	632 nM	7.66	29 nM	214 nM	16 nM	19 nM	283 nM	6.6 nM	113 nM	1340 nM	–	–	–	–	–	–	–	–	CC1CCCCOc2c(cnn2C)-c2cc(cn(C)c2=O)C(=O)Nc2nc3ccc(N4CCN(C)CC4)cc3n21 (stereo not drawn) [Example A19, 5,12,26-Trimethyl-16-(4-methylpiperazin-1-yl)-7-oxa-4,5,13,20,22,26-hexaazapentacyclo[22.3.1.0^{2,6}.0^{13,21}.0^{14,19}]octacosa-1(28),2(6),3,14,16,18,20,24-octaene-23,27-dione]	GI50 [2, 5]: 147 nM; GI50 [2, 6]: 98 nM; GI50 [2, 7]: 246 nM; GI50 [2, 8]: 85 nM; GI50 [2, 9]: 85 nM; GI50 (PC-9; Homo sapiens, PC-9, 72 h): 856 nM
> 5000 nM	168 nM	65 nM	8.13	1.8 nM	20 nM	1.3 nM	5.4 nM	68 nM	2.7 nM	7 nM	1680 nM	–	–	–	–	–	–	–	–	C[C@@H]1CCCOc2c(cnn2C)-c2cc(cn(C)c2=O)C(=O)Nc2nc3ccc4c(c3n2C1)CCN(C)C4 [Example A103, (11R)-5,11,18,30-tetramethyl-7-oxa-4,5,13,18,24,26,30-heptaazahexacyclo[26.3.1.0^{2,6}.0^{13,25}.0^{14,23}.0^{15,20}]dotriaconta-1(32),2(6),3,14,20,22,24,28-octaene-27,31-dione]	GI50 [2, 5]: 26 nM; GI50 [2, 6]: 17 nM; GI50 [2, 7]: 10 nM; GI50 [2, 8]: 72 nM; GI50 [2, 9]: 18 nM; GI50 (PC-9; Homo sapiens, PC-9, 72 h): 32 nM
